According to PubChem BioAssay (NCI):
Values joined by “and” are separate entries in the source; they are usually repeats but may differ in a detail not shown here. Identical values can stand only once.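 Each compound was tested at five concentrations against cells in 96-well plates for 48 hours. At the GI50, growth is halved. TGI: total growth inhibition.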

Assays:
Assay in all cases: NCI anticancer screen, dose series, 48 h
LOX IMVI melanoma = tested on: LOX IMVI melanoma
SF-268 CNS = tested on: SF-268 CNS
MALME-3M melanoma = tested on: MALME-3M melanoma
M14 melanoma = tested on: M14 melanoma
SNB-19 CNS = tested on: SNB-19 CNS
HCT-116 colon = tested on: HCT-116 colon
SK-MEL-5 melanoma = tested on: SK-MEL-5 melanoma
SK-OV-3 ovarian = tested on: SK-OV-3 ovarian
RXF 393 renal = tested on: RXF 393 renal
HCT-15 colon = tested on: HCT-15 colon

SMILES	TGI (LOX IMVI melanoma) [µM]	TGI (SF-268 CNS) [µM]	TGI (MALME-3M melanoma) [µM]	TGI (M14 melanoma)	TGI (SNB-19 CNS) [µM]	TGI (HCT-116 colon) [µM]	TGI (SK-MEL-5 melanoma)	TGI (SK-OV-3 ovarian) [µM]	TGI (RXF 393 renal) [µM]	TGI (HCT-15 colon) [µM]	GI50 (LOX IMVI melanoma) [µM]	GI50 (SF-268 CNS) [µM]	GI50 (HCT-15 colon)	GI50 (M14 melanoma)	GI50 (SNB-19 CNS) [µM]	GI50 (HCT-116 colon) [µM]	GI50 (SK-MEL-5 melanoma)	GI50 (SK-OV-3 ovarian) [µM]	GI50 (RXF 393 renal) [µM]	GI50 (MALME-3M melanoma) [µM]
CC1(C)O/C(=C\c2ccccc2)C(=O)/C(=C/c2ccccc2)O1	> 100	> 100	> 100	> 100 µM	> 100	> 100	27.9 µM	> 100	47.6											
CN[C@@H](C)[C@H](NC)c1ccccc1	> 100		> 100	> 100 µM	> 100	> 100	> 100 µM	> 100	> 100	> 100										
CCOC(=N)CC(=O)Nc1cccc(C)c1C	> 100	> 100	> 100	> 100 µM	> 100	> 100	> 100 µM	> 100	> 100											
Cc1cc(NS(=O)(=O)c2ccc(Nc3c4ccccc4nc4c(C(=O)NCCN(C)C)cccc34)cc2)no1	31.3	16.4		> 100 µM	13	> 100	11.8 µM		22.8	> 100										
Cc1cc2c(cc1Cl)SC(=Nc1ccc(Cl)cc1)N(S(=O)(=O)c1ccccc1)S2(=O)=O	7.18	34.8		27.6 µM	> 100	21.5	19.2 µM	44.4	48.2	13	1.58	13.8	2.77 µM	12.6 µM	20.6	9.78	6.82 µM	12	17.2	
COc1ccc(C(=O)COc2cccc(/C=C3\Oc4ccc5ccccc5c4C3=O)c2)cc1	3.08	14	5.51	18.1 µM	29.4	4.94	23.9 µM		1.77	13.7	1.56	3.72	2.94 µM	4.8 µM	15.5	2.31	10.9 µM		0.545	1.74
COc1cccc(-n2c3nc(=O)n(C)c(=O)c-3nc3ccccc32)c1		53.9	29.8	27.7 µM	74.3	> 100	13.8 µM	> 100		66.3										
O=C(COc1ccc(/C=C2\CSc3ccccc3C2=O)cc1)Nc1nccs1	3.41	13.6	31.4	21.2 µM	26.2	14.7	23.6 µM	42.2		14.7	1.77	3.61	4.03 µM	9.38 µM	13.4	4.32	11.5 µM	22.2		15
COc1ccc(C2c3cc(OC)c(OC)cc3C(Cc3ccc([N+](=O)[O-])cc3)C2c2ccc([N+](=O)[O-])cc2)cc1OC (configuration not stated)	> 100	> 100	> 100	> 100 µM	> 100	> 100	> 100 µM		> 100	> 100										
Nc1ccn(C2(CO)C=C(CO)C(O)C2O)c(=O)n1 (configuration not stated)		> 25.8	> 25.8	> 25.8 µM	> 25.8	> 25.8	> 25.8 µM	> 25.8	> 25.8	> 25.8										
O=S1OC2(c3ccccc3-c3ccccc32)c2ccccc21 (configuration not stated)	> 100		> 100	> 100 µM	> 100	> 100	> 100 µM	> 100	> 100	> 100										
Cc1c(C2=C(Br)C(=O)N(C)C2=O)c(=O)n(C)c(=O)n1C	32.3	> 100		> 100 µM	> 100	40.9	52.1 µM	> 100	29	45.2										
Cc1cc(C2CC(O)C(CO)O2)cc2c(=O)[nH]c(N)nc12 (configuration not stated)	> 100	> 100		> 100 µM	> 100	> 100	> 100 µM	> 100	> 100	> 100	> 100	> 100	> 100 µM	> 100 µM	> 100	> 100	> 100 µM	> 100	> 100	
O=C(Nc1ccc(-n2cc(-c3ccncc3)c(-c3ccc(Cl)c(O)c3)n2)cc1)Nc1ccc(Cl)c(C(F)(F)F)c1	2.75	3.87		3.11 µM	4.7	2.72	2.95 µM	4.69	2.31	2.95	1.44	1.65	1.31 µM	1.43 µM	1.72	1.29	1.53 µM	2.02	0.755	
C=C1C(=O)O[C@H]2/C=C(/C)C3=CC(=O)[C@@](C)(C[C@@H](OC(=O)/C(C)=C\C)C12)O3 (some centres not stated)	1.14	> 46.5		> 28.8 µM	29.7	1.11	> 35.3 µM	26	1.5	1.45										
O=C(Nc1ccc(-c2ccccc2)cc1)C1CCN(S(=O)(=O)c2ccccc2Cl)CC1	> 100	> 100		> 100 µM	> 100	> 100	> 100 µM	> 100	5	> 100	27.7	39	77.4 µM	64.1 µM	> 100	39.4	69.3 µM	57.4	2.09	
CN(CCCNC(=O)Cc1ccc2ccc3cccc4ccc1c2c34)CCCNc1cc(-c2ccc3ccccc3c2)nc2ccccc12		2.91		3.46 µM	3.18	1.28	3.01 µM	3.06		2.94		1.43	1.52 µM	1.76 µM	1.74	0.333	1.64 µM	1.64		
COc1ccc(Nc2c3ccccc3nc3occ(Cl)c23)cc1		21.5	14.7	19.5 µM	> 38.2	3.29	0.521 µM					0.0368	< 0.01 µM	0.0287 µM	0.48	< 0.01	< 0.01 µM	0.765		0.0124

SMILES	TGI (LOX IMVI melanoma) [µM]	TGI (SF-268 CNS) [µM]	TGI (MALME-3M melanoma) [µM]	TGI (M14 melanoma)	TGI (SNB-19 CNS) [µM]	TGI (HCT-116 colon) [µM]	TGI (SK-MEL-5 melanoma)	TGI (SK-OV-3 ovarian) [µM]	TGI (RXF 393 renal) [µM]	TGI (HCT-15 colon) [µM]	GI50 (LOX IMVI melanoma) [µM]	GI50 (SF-268 CNS) [µM]	GI50 (HCT-15 colon)	GI50 (M14 melanoma)	GI50 (SNB-19 CNS) [µM]	GI50 (HCT-116 colon) [µM]	GI50 (SK-MEL-5 melanoma)	GI50 (SK-OV-3 ovarian) [µM]	GI50 (RXF 393 renal) [µM]	GI50 (MALME-3M melanoma) [µM]
C=C1C[C@]23CCC4C(C)(C)C(=O)CC[C@]4(C)C2C[C@H]1C(O)C3=O (some centres not stated)	> 75	> 75	> 75	> 75 µM	> 75		> 75 µM	> 75	> 75	> 75										
O=C1CC2C(=O)N(Cc3ccccc3)C1C=C2S(=O)(=O)c1ccccc1 (configuration not stated)	> 100	> 100	> 100	> 100 µM	> 100	> 100	> 100 µM	> 100	> 100											
CC(C)OC(=O)NNc1cc(Cl)ccc1Cl	> 100	> 100	> 100	> 100 µM	> 100	> 100	> 100 µM	> 100		> 100										
COC(=O)CCC(=O)CC1CC(=O)C2CCCN12 (configuration not stated)	> 100	> 100	> 100	> 100 µM	> 100	> 100	> 100 µM	> 100	> 100											
Cc1ccc(C2(O)CC(c3ccc([N+](=O)[O-])o3)=NN2C(=O)COc2ccc(Cl)cc2)cc1 (configuration not stated)	19	28.1	27.1	17.1 µM	67.3	22.2	6.6 µM	> 100		17.7										
COC(=O)/C(C=O)=C/Sc1ccccc1	23	33		42.6 µM	> 100	> 100	85.2 µM	88.5	51.7	> 100										
COC(=O)/C(C#N)=C1\CCC(O)N1 (configuration not stated)	> 100	> 100	> 100	> 100 µM	> 100	> 100		> 100	> 100											
N.N.N.N.[Cl-].[Co+3].[N-]=[N+]=[N-].[N-]=[N+]=[N-]	> 100	> 100	> 100	> 100 µM	> 100	> 100	> 100 µM	> 100		> 100	> 100	81.6	> 100 µM	> 100 µM	> 100	> 100	> 100 µM	> 100		57.9
CC(C)N=c1cc2n(-c3ccc(Cl)cc3)c3ccccc3nc-2cc1Nc1ccc(Cl)cc1		> 50		2.31 µM and 5.62 µM	> 50		1.26 µM and 2.59 µM	> 50	4.72	> 100		1.73	0.54 µM and 1.61 µM	1.01 µM and 2.29 µM	2.21		0.634 µM and 1.28 µM	2.15	0.921	
COc1cc(C2=C(c3cn(C)c4ccccc34)COC2=O)cc(OC)c1OC		7.41	14.7	1.17 µM	> 100		1.4 µM		0.555	2.28		0.802	0.0416 µM	0.0349 µM	0.16	0.0396	0.0773 µM	0.269	0.133	0.474
O=c1[nH]cnc2cccc(Cl)c12		> 100	> 100	> 100 µM	> 100	> 100	> 100 µM	> 100	> 100	> 100										
COc1ccc(-c2c[nH]c(=S)n2-c2ccc(OC)cc2)cc1	> 50	> 50			> 50	> 50	> 50 µM		> 50	> 50	> 50	> 50	> 50 µM		> 50	> 50	> 50 µM		> 50	
COc1ccc(-c2ccc(/C=N/n3c(C)n[nH]c3=S)o2)c([N+](=O)[O-])c1		> 100	> 100	> 100 µM	> 100	> 100		> 100	> 100	> 100		47.5	> 100 µM	> 100 µM	> 100	> 100		> 100	32.8	54.1
COc1cc2cccc(N=Cc3cccc(OC)c3OC(C)C)c2cc1OC		91.4	59.8	35.9 µM			53.9 µM	73												
C=CCNC(=O)N(CCC)CCCCC(NC(C)=O)C(=O)NCc1ccccc1 (configuration not stated)	> 100	> 100	> 100	> 100 µM	> 100		> 100 µM	> 100	> 100	> 100										
O=C(Nc1ccc(Br)cc1)c1ccc(Cl)c(Cl)c1	7.67	> 100		> 100 µM	> 100	8.07	> 100 µM	> 100	> 100	> 100	2.56	4.51	3.02 µM	3.76 µM	3.87	2.72	3.45 µM	3.17	> 28	
Cc1ccc(S(=O)(=O)NCCNc2nccc(-c3c(-c4ccc(F)cc4)nc4sccn34)n2)cc1	> 100	37.4	> 100		48.4	> 100	> 100 µM	40.3	29.4		4.86	5.58			9.41	3.88	3.52 µM	12.4	4.02	5.07
COc1ccc2c(O)cc3c(c2c1)[C@H](CCl)CN3C(=O)c1cc2cc(NC(=O)CCN3CCOCC3)ccc2[se]1	0.0101	0.0946	< 0.001		0.233	> 3.25	< 0.001 µM		< 0.001		< 0.001	< 0.001	< 0.001 µM		< 0.001	< 0.001	< 0.001 µM	< 0.001	< 0.001	< 0.001
